Experimental data published in ChEMBL document CHEMBL3885881, “DrugMatrix”.

Organism: Rattus norvegicus
Test: DrugMatrix - Regimen: Daily Repeat
Type: toxicity, organism-based, Sprague-Dawley
Design: regimen Daily Repeat, gender Male, age 6-8 weeks
Settings: in vivo, po, route oral GAVAGE, vehicle 100 % SALINE; for ABSOLUTE BASOPHIL / ABSOLUTE EOSINOPHIL / ABSOLUTE LYMPHOCYTE / ABSOLUTE MONOCYTE / ABSOLUTE SEGMENTED NEUTROPHIL / BASOPHIL / EOSINOPHIL / ERYTHROCYTE COUNT / HEMATOCRIT / HEMOGLOBIN / LEUKOCYTE COUNT / LYMPHOCYTE / MEAN CORPUSCULAR HEMOGLOBIN / MEAN CORPUSCULAR HEMOGLOBIN CONCENTRATION / MEAN CORPUSCULAR VOLUME / MONOCYTE / NEUTROPHIL / NUCLEATED RED BLOOD CELLS / PLATELET COUNT: tissue Blood; for ALANINE AMINOTRANSFERASE / ALBUMIN / ALKALINE PHOSPHATASE / ASPARTATE AMINOTRANSFERASE / BLOOD UREA NITROGEN / CARBON DIOXIDE / CHLORIDE / CHOLESTEROL / CREATINE PHOSPHOKINASE / CREATININE / GLUCOSE / LACTATE DEHYDROGENASE / LIPASE / PHOSPHORUS / POTASSIUM / SODIUM / TOTAL BILIRUBIN / TOTAL PROTEIN / URIC ACID: tissue Plasma
[1] = 0 mg/kg, 72 h, dose level Control, time 3 day
[2] = 0 mg/kg, […], dose level Control, time 7 day
[3] = 3000 mg/kg, 72 h, dose level Low, time 3 day

CCO [ALCOHOL]
ABSOLUTE BASOPHIL [1]: 0 CELLS/uL
ABSOLUTE EOSINOPHIL [1]: 66 CELLS/uL
ABSOLUTE LYMPHOCYTE [1]: 11922.83 CELLS/uL
ABSOLUTE MONOCYTE [1]: 401.5 CELLS/uL
ABSOLUTE SEGMENTED NEUTROPHIL [1]: 1526.33 CELLS/uL
BASOPHIL [1]: 0%
EOSINOPHIL [1]: 0.5%
ERYTHROCYTE COUNT [1]: 5.62 x10E6/uL
HEMATOCRIT [1]: 37.17%
HEMOGLOBIN [1]: 13.53 G/DL
LEUKOCYTE COUNT [1]: 13.92 x10E3/uL
LYMPHOCYTE [1]: 86.17%
MEAN CORPUSCULAR HEMOGLOBIN [1]: 24.07 pg
MEAN CORPUSCULAR HEMOGLOBIN CONCENTRATION [1]: 36.42 G/DL
MEAN CORPUSCULAR VOLUME [1]: 66.1 fL
MONOCYTE [1]: 3%
NEUTROPHIL [1]: 10.33%
NUCLEATED RED BLOOD CELLS [1]: 0 /100WBC
PLATELET COUNT [1]: 1107 x10E3/uL
ALANINE AMINOTRANSFERASE [1]: 45.33 u/L
ALBUMIN [1]: 4.3 G/DL
ALKALINE PHOSPHATASE [1]: 321.33 u/L
ASPARTATE AMINOTRANSFERASE [1]: 77.33 u/L
BLOOD UREA NITROGEN [1]: 14.33 mg/dL
CARBON DIOXIDE [1]: 32.33 mmol/L
CHLORIDE [1]: 99.67 MEQ/L
CHOLESTEROL [1]: 82.33 mg/dL
CREATINE PHOSPHOKINASE [1]: 205.5 u/L
CREATININE [1]: 0.19 mg/dL
GLUCOSE [1]: 150.83 mg/dL
LACTATE DEHYDROGENASE [1]: 88.17 u/L
LIPASE [1]: 10.83 u/L
PHOSPHORUS [1]: 10.9 mg/dL
POTASSIUM [1]: 5.83 MEQ/L
SODIUM [1]: 145.15 MEQ/L
TOTAL BILIRUBIN [1]: 0.12 mg/dL
TOTAL PROTEIN [1]: 6.22 G/DL
URIC ACID [1]: 1 mg/dL
ABSOLUTE BASOPHIL [2]: 0 CELLS/uL
ABSOLUTE EOSINOPHIL [2]: 22 CELLS/uL
ABSOLUTE LYMPHOCYTE [2]: 11105.17 CELLS/uL
ABSOLUTE MONOCYTE [2]: 258.17 CELLS/uL
ABSOLUTE SEGMENTED NEUTROPHIL [2]: 881.33 CELLS/uL
BASOPHIL [2]: 0%
EOSINOPHIL [2]: 0.17%
ERYTHROCYTE COUNT [2]: 5.29 x10E6/uL
HEMATOCRIT [2]: 34.03%
HEMOGLOBIN [2]: 13.67 G/DL
LEUKOCYTE COUNT [2]: 12.27 x10E3/uL
LYMPHOCYTE [2]: 90.83%
MEAN CORPUSCULAR HEMOGLOBIN [2]: 25.9 pg
MEAN CORPUSCULAR HEMOGLOBIN CONCENTRATION [2]: 40.18 G/DL
MEAN CORPUSCULAR VOLUME [2]: 64.42 fL
MONOCYTE [2]: 2.17%
NEUTROPHIL [2]: 6.83%
NUCLEATED RED BLOOD CELLS [2]: 0 /100WBC
PLATELET COUNT [2]: 1159.83 x10E3/uL
ALANINE AMINOTRANSFERASE [2]: 45.83 u/L
ALBUMIN [2]: 4.1 G/DL
ALKALINE PHOSPHATASE [2]: 240 u/L
ASPARTATE AMINOTRANSFERASE [2]: 88.67 u/L
BLOOD UREA NITROGEN [2]: 13.67 mg/dL
CARBON DIOXIDE [2]: 31.83 mmol/L
CHLORIDE [2]: 96.83 MEQ/L
CHOLESTEROL [2]: 71.17 mg/dL
CREATINE PHOSPHOKINASE [2]: 202.5 u/L
CREATININE [2]: 0.22 mg/dL
GLUCOSE [2]: 132.67 mg/dL
LACTATE DEHYDROGENASE [2]: 107.17 u/L
LIPASE [2]: 10.5 u/L
PHOSPHORUS [2]: 10.47 mg/dL
POTASSIUM [2]: 6.23 MEQ/L
SODIUM [2]: 140.73 MEQ/L
TOTAL BILIRUBIN [2]: 0.12 mg/dL
TOTAL PROTEIN [2]: 6.18 G/DL
URIC ACID [2]: 0.87 mg/dL
ABSOLUTE BASOPHIL [3]: 0 CELLS/uL
ABSOLUTE EOSINOPHIL [3]: 0 CELLS/uL
ABSOLUTE LYMPHOCYTE [3]: 9478 CELLS/uL
ABSOLUTE MONOCYTE [3]: 154.17 CELLS/uL
ABSOLUTE SEGMENTED NEUTROPHIL [3]: 701.17 CELLS/uL
BASOPHIL [3]: 0%
EOSINOPHIL [3]: 0%
ERYTHROCYTE COUNT [3]: 5.61 x10E6/uL
HEMATOCRIT [3]: 37.43%
HEMOGLOBIN [3]: 13.38 G/DL
LEUKOCYTE COUNT [3]: 10.33 x10E3/uL
LYMPHOCYTE [3]: 91.5%
MEAN CORPUSCULAR HEMOGLOBIN [3]: 23.87 pg
MEAN CORPUSCULAR HEMOGLOBIN CONCENTRATION [3]: 35.78 G/DL
MEAN CORPUSCULAR VOLUME [3]: 66.65 fL
MONOCYTE [3]: 1.5%
NEUTROPHIL [3]: 7%
NUCLEATED RED BLOOD CELLS [3]: 0 /100WBC
PLATELET COUNT [3]: 1014.67 x10E3/uL
ALANINE AMINOTRANSFERASE [3]: 55.33 u/L
ALBUMIN [3]: 4.22 G/DL
ALKALINE PHOSPHATASE [3]: 351.5 u/L
ASPARTATE AMINOTRANSFERASE [3]: 80.33 u/L
BLOOD UREA NITROGEN [3]: 10.17 mg/dL
CARBON DIOXIDE [3]: 30.17 mmol/L
CHLORIDE [3]: 99.8 MEQ/L
CHOLESTEROL [3]: 73.17 mg/dL
CREATINE PHOSPHOKINASE [3]: 216.33 u/L
CREATININE [3]: 0.24 mg/dL
GLUCOSE [3]: 152.67 mg/dL
LACTATE DEHYDROGENASE [3]: 102.83 u/L
LIPASE [3]: 8.17 u/L
PHOSPHORUS [3]: 10.45 mg/dL
POTASSIUM [3]: 5.55 MEQ/L
SODIUM [3]: 144.46 MEQ/L
TOTAL BILIRUBIN [3]: 0.1 mg/dL
TOTAL PROTEIN [3]: 6.13 G/DL
URIC ACID [3]: 0.87 mg/dL
